The values that follow are results of earlier work, collected in patent US20110111022A1, “PHARMACEUTICAL FORMULATION” (priority 2008, published 2011).

The conditions of series [1]: concurrent administration of aliskiren and irbesartan.
For series [2], the target named is hepatic cytochrome P450 3A4 (Homo sapiens, UniProt P08684).
hepatic cytochrome P450 3A4, sequence (P08684 whole entry): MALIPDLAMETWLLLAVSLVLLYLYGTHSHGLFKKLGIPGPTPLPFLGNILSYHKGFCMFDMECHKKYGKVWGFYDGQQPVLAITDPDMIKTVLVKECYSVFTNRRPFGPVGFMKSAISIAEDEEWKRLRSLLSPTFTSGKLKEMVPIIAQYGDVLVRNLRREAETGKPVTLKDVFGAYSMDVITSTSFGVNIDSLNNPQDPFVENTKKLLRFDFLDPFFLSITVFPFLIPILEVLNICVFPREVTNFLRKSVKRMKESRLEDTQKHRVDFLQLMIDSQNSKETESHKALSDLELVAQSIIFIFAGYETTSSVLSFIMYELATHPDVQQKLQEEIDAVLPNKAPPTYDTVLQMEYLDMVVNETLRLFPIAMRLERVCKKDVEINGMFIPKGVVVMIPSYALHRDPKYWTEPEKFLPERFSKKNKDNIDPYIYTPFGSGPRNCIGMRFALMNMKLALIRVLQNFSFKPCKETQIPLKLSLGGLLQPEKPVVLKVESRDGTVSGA

For `COCCCOc1cc(C[C@@H](C[C@H](N)[C@@H](O)C[C@H](C(=O)NCC(C)(C)C(N)=O)C(C)C)C(C)C)ccc1OC` [aliskiren, 2(S),4(S),5(S),7(S)—N-(3-amino-2,2-dimethyl-3-oxopropyl)-2,7-di(1-methylethyl)-4-hydroxy-5-amino-8-[4-methoxy-3-(3-methoxy-propoxy)phenyl]-octanamide], the solubility in water entry is given as “easily soluble in water”. In addition, the “decrease in blood aliskiren level” value in series [1] is recorded as 50%. For the same compound, the “metabolism in in vitro experiments” value in series [2] is “metabolized by hepatic cytochrome P450 3A4”.
